Values joined by “and” are separate entries in the source; they are usually repeats but may differ in a detail not shown here. Identical values can stand only once. Like-named read-outs stand apart in the source and are kept apart here.
Legend:
[1] = cited from earlier work
[2] = Particle size by laser diffraction (Sympatec HELOS) before/after high shear mixing; type: physicochemical
Text: The particle size data were obtained from a Sympatec module HELOS (Helium-Neon Laser Optical System), dispersion Unit RODOS/M, potent products accessory ASPIROS, lens R5 (4.50 μm-875 μm) and R4 (1.80 μm-350 μm), conditions R5, 0.1 bar-1 bar, 18 mm/s, R4, 3 bar, 18 mm/s

[3] = Stability of ivermectin under the high shear mixer process; type: physicochemical; conditions: high shear mixer process of the invention
Text: Under the conditions set forth in this invention, ivermectin is submitted to high shear forces without suffering decomposition. High shear mixing processes provide stressful conditions which promote decomposition of the compounds submitted to such processes. The stressful conditions involve recirculating mixtures of the compounds with solvents, at very high speed, through mechanical systems which generate unaligned forces, driving to strong collisions between the particles and the mechanical parts of the high shear mixer and between the particles themselves. Such collisions break the particles of the product thus reducing their particle size. A side effect of the mechanical collisions is a significant increase in the temperature during the high shear mixer process. […] In fact, ivermectin is purified with good yields under the high shear process conditions set forth in this invention.

[4] = cited from earlier work; remark: listed apart in the source
[5] = room temperature, cited from earlier work

Substance: Ivermectin
- solubility in water [1]: low solubility in water
- D (90) after high shear mixing ([2]; Example 1: ethanol/water/formamide/methylparaben, 2000 RPM, about 3 hours, 0-5° C.): 56 μm
- Dv(90) after high shear mixing ([2]; Example 2: ethanol/water/formamide/BHA, 2000 RPM, about 3 hours, 0-5° C.): 53 μm
- Dv(90) after high shear mixing ([2]; Example 3: ethanol (100 ml)/water (50 ml)/formamide/methylparaben, 2000 RPM, about 3 hours, 0-5° C.): 57 μm
- Dv(90) after high shear mixing ([2]; Example 4: water/isopropanol/formamide/methylparaben, 2000 RPM, about 3 hours, 0-5° C.): 56 μm
- Dv(90) after high shear mixing ([2]; Example 5: water (16 ml)/ethanol (16 ml)/formamide, 1000 RPM, about 2 hours, 0-5° C.): 42 μm
- Dv(90) after high shear mixing ([2]; Example 6: water (26 ml)/ethanol (30 ml)/formamide, 1000 RPM, about 2 hours, 0-5° C.): 36 μm
- Dv(90) after high shear mixing ([2]; Example 7: water (1 ml)/ethanol (30 ml)/formamide, 1000 RPM, about 2 hours, 0-5° C.): 56 μm
- D (90) / Dv(90) of starting ivermectin ([2]; before high shear mixing): 301 μm and 295 μm and 300 μm
- decomposition under high shear mixer process [3]: did not decompose the product
- optimum pH for ivermectin stability in solution [4]: 6.3
- Pharmacopoeia Classification ([5]; Acetone): Soluble
- Solubility ([5]; Acetone): 81 mg/mL
- Pharmacopoeia Classification ([5]; Diethyl ether): Soluble
- Solubility ([5]; Diethyl ether): 61 mg/mL
- Pharmacopoeia Classification ([5]; Dimethylformamide): Freely soluble
- Solubility ([5]; Dimethylformamide): 510 mg/mL
- Pharmacopoeia Classification ([5]; Ethanol): Soluble
- Solubility ([5]; Ethanol): 97 mg/mL
- Pharmacopoeia Classification ([5]; Ethyl acetate): Freely soluble
- Solubility ([5]; Ethyl acetate): 240 mg/mL
- Pharmacopoeia Classification ([5]; Isopropanol (2-propanol)): Soluble
- Solubility ([5]; Isopropanol (2-propanol)): 70 mg/mL
- Pharmacopoeia Classification ([5]; Methanol): Freely soluble
- Solubility ([5]; Methanol): 220 mg/mL
- Pharmacopoeia Classification ([5]; Methyl Ethyl ketone): Freely soluble
- Solubility ([5]; Methyl Ethyl ketone): 320 mg/mL
- Pharmacopoeia Classification ([5]; Tetrahydrofuran): Freely soluble
- Solubility ([5]; Tetrahydrofuran): 390 mg/mL
- Pharmacopoeia Classification ([5]; Toluene): Soluble
- Solubility ([5]; Toluene): 63 mg/mL
- Pharmacopoeia Classification ([5]; Water): Practically Insoluble
- Solubility ([5]; Water): 0.000001 mg/mL
- Pharmacopoeia Classification ([5]; n-Hexane): Slightly soluble
- Solubility ([5]; n-Hexane): 0.69 mg/mL
- Pharmacopoeia Classification ([5]; p-Dioxane): Freely soluble
- Solubility ([5]; p-Dioxane): 430 mg/mL

Reference: patent publication US20240252524A1 (Hovione Scientia Limited, priority 2021, published 2024)
